This note sets out measurements from article PMC3559838 (PLoS ONE, 2013).

A word on the Km: it is the substrate concentration at which the rate is half of its maximum.

The nature of one series: Acidic stability test. Format: physicochemical. Particulars: for variation in concentrations between beginning and after 24 h: 37°C, acidic solutions pH 2.6–6.5; for stability in acidic solutions: 24 h incubation at 37°C, pH 2.6–6.5. How it is done: 1 mg/mL of belinostat-G and vorinostat-G was prepared in various vehicles with different pH values. These vehicles included 10 mM ammonium acetate (pH = 6.5), 10 mM ammonium formate (pH = 6.0), 0.1% acetic acid (pH = 3.2) and 0.1% formic acid (pH = 2.6). All of these test samples were incubated at 37°C for 24 h. Milli Q water (pH = 5.5) was used as control solution which was stored in −20°C. All the samples were analyzed by LC-MS/MS to obtain the values of peak area for belinostat-G and vorinostat-G. The acidic stability of both conjugated compounds was evaluated through comparison of peak area ratio of test samples versus control.

Series [1] in a line: Pharmacokinetics after 30 min i.v. infusion, phase I trial in hepatocellular carcinoma patients. Format: in vivo, human. The note with it: for Relative Exposure, Bel-G/Bel AUC ratio: AUC0–24 h molar ratio; for relative systemic exposure of belinostat glucuronide versus belinostat: human plasma, molar concentration AUC ratio. How it is done: This multicentre phase I trial of belinostat was done in Hong Kong and Singapore. All patients provided written informed consent according to Good Clinical Practice guidelines, and the protocol was approved by the institutional review boards of Prince of Wales Hospital, Hong Kong and National University Hospital, Singapore.
Venous blood samples had been collected in heparinized tubes. Collected blood samples were centrifuged at 3000 g for 10–15 min and the plasma (supernatant) was separated from the cell pellet and stored in plain tubes at –80°C till analysis. […] Briefly, vorinostat-G was used as the internal standard for belinostat-G. The mass spectrometer was operated in positive ion mode with the optimal mass transitions of belinostat-G: m/z 495>93 and vorinostat-G: m/z 441>232, respectively. The analytical method was well validated with good linearity (coefficient of determination, r^2≥0.999) in the range of 1–100 µM for belinostat-G.
Pharmacokinetic parameters were estimated based on non-compartmental analysis model using WinNonlin software version 5.3 (Pharmsight, Sunnyvale, CA, USA). […] One way analysis of variance (ANOVA) was used to determine the significance among the genotypes with Tukey posthoc tests for adjustment for comparison between individual groups. A value of p<0.05 was considered to be significant.

Series [2] relates to HepG2 cells. Description: Gentian Violet viability staining, 24-well plates. Type of series: cell-based, human. Particulars: 0–10 µM, 72 h. How it is done:
(§1) To the other plate, equal molar concentrations of belinostat-G were added similarly. After 72 h, cells were stained with Gentian Violet paint (0.5% w/v; B.P.) and assessed for viability. […] After incubating 24 h, 100-µL drug solution or blank medium was added into each well of 96-well plates. 72 h later, 20 µL of MTS/PES was added into each well for incubation for 3 h. OD values are measured on wavelength 490 nm. Cell growth inhibition was calculated based on the […] with subtraction of background reading for only medium containing wells. The growth inhibition was defined as the percentage of the average […] from drug-treated wells over that from control wells without treatment. The experiment was done in triplicates. IC50 values were calculated using GraphPad PRISM software (GraphPad Software, Inc., La Jolla, CA, USA).

Series [3] relates to HepG2 cells. Description: MTS growth inhibition assay. Type of series: cell-based, human. The note with it: HepG2, 72 h. How it is done:
as §1

Substrate in series [4]: O=C(/C=C/c1cccc(S(=O)(=O)Nc2ccccc2)c1)NO
Description: UGT supersome screening and kinetic analysis. Format: in vitro ADME, human. The note with it: other: UGT1A1 supersomes, 10 to 750 µM substrate, Michaelis-Menten.
Description: Before the addition of substrate, the incubation mixture was prewarmed and equilibrated for 5 min at 37°C. […] The incubation mixture was vortexed and centrifuged (10,060 g) at 4°C for 10 min, and the supernatants were analyzed. Insect microsomes without UGT cDNA served as negative control. […] Incubations were performed as described above. Three independent experiments were performed for kinetic analysis.
Plots of substrate concentration, S (X axis) versus v (Y axis) were then constructed. Km and Vmax were calculated using the Michaelis-Menten equation (GraphPad software, Inc., San Diego, CA, USA).

Take `O=C(CCCCCCC(=O)Nc1ccccc1)NO[C@@H]1O[C@H](C(=O)O)[C@@H](O)[C@H](O)[C@H]1O` [vorinostat-G, Vorinostat glucuronide]: in the series “Acidic stability test”, the “variation in concentrations between beginning and after 24 h” value is reported as less than 4%; the “stability in acidic solutions” value is reported as “stable”.

In the case of `O=C(/C=C/c1cccc(S(=O)(=O)Nc2ccccc2)c1)NO[C@@H]1O[C@H](C(=O)O)[C@@H](O)[C@H](O)[C@H]1O` [Belinostat-G, Belinostat glucuronide], the “Relative Exposure, Bel-G/Bel AUC ratio” value in series [1] (600 mg/m^2) worked out at 4.79±0.46; in series [1] (900 mg/m^2) it was 4.22±0.15; in series [1] (1200 mg/m^2) it was 4.82±1.80; in series [1] (1400 mg/m^2) it was 4.13±0.68. Moreover, the “relative systemic exposure of belinostat glucuronide versus belinostat” value in series [1] (listed as belinostat glucuronide) was “more than 4 fold”; in series [1] (listed as belinostat-G), 4 fold. The “variation in concentrations between beginning and after 24 h” value in “Acidic stability test” is reported as less than 4%. The “stability in acidic solutions” value in the series “Acidic stability test” is given as “stable”. For the same molecule, the degradation in the series “Acidic stability test” (pH 2.6, 37°C, 24 h) is reported as 7%. For the same molecule, in the series with HepG2 cells [2], the “cytotoxicity / cell viability (staining)” value is “did not seem to affect cell viability”. Besides, the “IC50 (MTS)” value with HepG2 cells [3] is “cannot be converged”.

B1: UGT1A1 (Homo sapiens) (protein)
chain: HAGKILLIPVDGSHWLSMLGAIQQLQQRGHEIVVLAPDASLYIRDGAFYTLKTYPVPFQREDVKESFVSLGHNVFENDSFLQRVIKTYKKIKKDSAMLLSGCSHLLHNKELMASLAESSFDVMLTDPFLPCSPIVAQYLSLPTVFFLHALPCSLEFEATQCPNPFSYVPRPLSSHSDHMTFLQRVKNMLIAFSQNFLCDVVYSPYATLASEFLQREVTVQDLLSSASVWLFRSDFVKDYPRPIMPNMVFVGGINCLHQNPLSQEFEAYINASGEHGIVVFSLGSMVSEIPEKKAMAIADALGKIPQTVLWRYTGTRPSNLANNTILVKWLPQNDLLGHPMTRAFITHAGSHGVYESICNGVPMVMMPLFGDQMDNAKRMETKGAGVTLNVLEMTSEDLENALKAVINDKSYKENIMRLSSLHKDRPVEPLDLAVFWVEFVMRHKGAPHLRPAAHDLTWYQYHSLDVIGFLLAVVLTVAFITFKCCAYGYRKCLGKKGRVKKAHKSKTH
notes: purchased BD Gentest
B1: in series [4], the Km amounted to 99.6 µM, the Vmax is 353.1 pmol/min/mg protein and the Vmax/Km turned out to be 3.5 µL/min/mg protein.
